Assay [1] deals with Staphylococcus aureus. The assay can be described thus: Antibacterial activity against Staphylococcus aureus ATCC 29213 assessed as bacterial growth inhibition incubated for 24 hrs by photometric analysis. It counts as functional.
The nature of assay [2]: Immunosuppressive activity against B cell (unknown origin) assessed as inhibition of LPS-induced cell proliferation. It counts as functional, cell-based.

In brackets after ≈: the same amount, converted by molar mass.

Regarding `CC1=C2[C@@H]3CC(C)(C)C[C@@H]3[C@H](O[C@@H]3OC[C@@H](O)[C@H](O)[C@H]3O)[C@@]2(C)CC1=O`, the MIC50 in assay [1] was 69 µM (≈ 25.3 µg/mL).

With `CCCCCC[C@@H](O)C(=O)O[C@@H]1[C@@H]2[C@H](CC1(C)C)[C@H](O)[C@@]1([C@H](O)C(=O)OC)OCC(=O)[C@@]21C`, the half-inhibitory concentration (IC50) in assay [2] is 6.6 µM.

As to `CC1(C)C[C@H]2[C@@H](C1)C1=CC(=O)C[C@]1(C)[C@H]2O[C@@H]1O[C@H](CO)[C@@H](O)[C@H](O)[C@H]1O`, the MIC50 in assay [1] came to 34 µM (≈ 13 µg/mL).

`CC1=C2[C@@H]3CC(C)(C)C[C@@H]3[C@H](O[C@@H]3O[C@H](CO)[C@@H](O)[C@H](O)[C@H]3O)[C@@]2(C)CC1=O`: the MIC50 in assay [1] turned out to be 35 µM (≈ 13.9 µg/mL).

In general, MIC50 refers to the lowest concentration that inhibits either 50% of growth or 50% of the strains tested, depending on the study. Broadly, the IC50 is the concentration at which inhibition is half-maximal.

The values above are taken from ChEMBL document CHEMBL5360596, “Triquinane Sesquiterpene Glycosides from the Basidiomycete Antrodiella zonata” (J Nat Prod, 2023).
